Assays:
[1] = cited from earlier work; for absorption of the oral intake / oral dose: from food or intestine
[2] = system: airway obstruction in a patient with COPD; test: Administration of iodine on activated charcoal to a patient with COPD (spirometric evaluation and symptoms); assay type: in vivo, human; conditions: oral intake for a few days, subjective observation

Compound	half time in whole body ([1]; in vivo)	absorption of the oral intake / oral dose [1]	bronchorelaxing effect / relief of airway obstruction [2]
[CH3][Hg][Cl] [Methylmercury]	around 70 days	about 95%	–
II [elemental iodine]	–	–	no distinct bronchorelaxing effect was observed
[Cl][Hg][Cl] [mercuric chloride]	–	about 7%	–
